Test results reported in patent publication US20190365730A1, “ANAESTHETIC COMPOSITION COMPRISING ROPIVACAINE, PRILOCAINE AND LIDOCAINE” (priority 2017, published 2019).

Experiments:
[1] = compared with prilocaine, lidocaine or ropivacaine; cited from earlier work
[2] = tested on: intact skin of the lower arm; assay: Pinprick test of anesthesis after topical application to intact skin of the lower arm; type: in vivo
Protocol: The pharmaceutical compositions were topically administered to intact skin of the arm and tested for anesthesis by pinpricks to a treated area of the skin. The sensation of pain was recorded for every puncture of the skin by the pin. […] The compositions were applied to intact skin of the lower arm in a circle area of a diameter of 1-2 cm. The amount of the composition applied to the skin was kept constant and left on the skin during the study. The treated area of intact skin was subjected to repeated pinpricks and the sensation of pain was recorded.

[3] = animal models, compared with bupivacaine; cited from earlier work
[4] = relative to lidocaine; cited from earlier work

Row | Structure (SMILES) | toxicity [1] | duration of effect (effect lasted) [2] [h] | onset of anesthesis [2] | cardiotoxicity [3] | duration time of anesthesis compared to lidocaine [4]
1 | CCCCN1CCCCC1C(=O)Nc1c(C)cccc1C (centres unmarked) [bupivacaine, 1-Butyl-N-(2,6-dimethylphenyl)-2-piperidinecarboxamide] | more toxic than prilocaine, lidocaine or ropivacaine |  |  |  | 
2 | CCCN1CCCC[C@H]1C(=O)Nc1c(C)cccc1C.Cl.O [Ropivacaine, (S)-N-(2,6-dimethylphenyl)-1-propylpiperidine-2-carboxamide hydrochloride monohydrate] |  | 3 | approximately 1 hour | less cardiotoxicity than bupivacaine | about two
